Assay results reported in US20120258170A1, “PHARMACEUTICAL CO-CRYSTALS OF QUERCETIN” (Nutracryst Therapeutics Private Limited, priority 2009, published 2012).
Entries after “also recorded” stand apart in the source; their conditions may differ. Where two headings read alike, the source gives them in different places.

Assays:
[1] = system: db/db mice; assay: Chronic effect (21 days) on plasma glucose 3 hrs post dosing in db/db mice; assay type: in vivo; conditions: for % Red PG, 21th day 3 hr post dosing / 21th day 3 hr post dosing PG: 21 days 300 mg/kg once daily, then dose; for 21th day 3 hr post dosing PG: Mean ± SEM
Protocol: (§1) Db/db mice were acclimatized to dosing and exposed to tail cut and r.o.p bleeding. Animals were grouped based on plasma glucose, triglyceride and cholesterol values. Acute effect of test compound on plasma glucose levels determined 3 hrs post dosing followed by administration of test compound for 21 days. After 14 days treatment, 4 hrs fasting plasma glucose levels were measured. After 21 days treatment, 4 hrs fasting plasma glucose levels were measured followed by test compound administration and measurement of plasma glucose levels 3 hrs post dosing.
(§2) Kits: Plasma glucose, cholesterol and triglyceride were measured using Dade Behring auto analyzer. Plasma insulin values measured using Rat/mouse insulin ELISA kit (Millipore, lot no 16006280). Tail cut method plasma glucose values measured using Contour TS glucometer strips (Lot WK8MD3E32A).
(§3) Compounds and Vehicle: All test-compounds were formulated in tween CMC (10% of 2.5% tween 80+90% of 0.25% CMC) and prepared daily about 1 hr before administration. Animals were dosed for 21 days through oral gavage at dose volume of 10 ml/kg body weight.
(§4) Animals were dosed daily at around 10 AM to 11 AM with corresponding test compounds/vehicle at a volume of 10 ml/kg of body weight. Body weight, water intake and food intake was measured daily. After 14 days treatment plasma profile (PG, TG & TC) was measured in 4 hrs fasted animals. On that day animals were dosed post bleeding after keeping feed at 4 PM. After 21 days treatment plasma profile (PG, TG & TC) was measured in 4 hrs fasted animals. After bleeding, animals were administered with test compounds/vehicle and plasma glucose was measured 3 hrs post dosing with Glucometer. Immediately animals were provided with feed.
(§5) The percent reduction in plasma profile parameters were calculated using the formula 1−(tt/tc)/bt/bc)×100; where tt: test day treated group mean value of the parameter; tc: test day control group mean value of the parameter; bc: Basal Control group mean value; bt: Basal treated group mean value.
(§6) Statistics were applied using One-Way ANOVA followed by Dunnett's test using sigma stat software.

[2] = system: db/db mice; assay: Chronic effect on plasma profile (PG, TC, TG), 4 hrs fasted, before dosing, in db/db mice; assay type: in vivo; conditions: for 14th day PG / 14th day TC / 14th day TG: 14 days 300 mg/kg once daily per oral, pre dosing; for 14th day PG / 14th day TC / 14th day TG / 21st day PG / 21st day TC / 21st day TG: 4 hr fasting; for % Red PG, 14th day / % Red TC, 14th day / % Red TG, 14th day: 14 days 300 mg/kg once daily; for % Red PG, 14th day / % Red TC, 14th day / % Red TG, 14th day / % Red PG, 21st day: adjusted for control and basal; for 21st day PG / 21st day TC / 21st day TG: 21 days 300 mg/kg once daily per oral, predosing; for % Red PG, 21st day / % Red TC (plasma cholesterol), 21st day / % Red TG (plasma triglyceride), 21st day: 21 days 300 mg/kg once daily; for % Red TC (plasma cholesterol), 21st day / % Red TG (plasma triglyceride), 21st day: post 4 hrs fasting, without dosing on the day; for Basal PG / Basal TC / Basal TG: 4 hrs fasted, before treatment, Mean ± SEM
Protocol: as §1, §2, §3, §4
(§7) Blood samples from r.o.p bleeding were collected in micro centrifuge tubes containing 5 ul of EDTA Na ([…]). Plasma separated by centrifuging blood samples at 6000 rpm at 40 C for 5 minutes. Plasma glucose, total cholesterol and triglyceride were measured using Dade Bhering auto analyser. Plasma insulin was measured (in duplicate samples), using Millipore mouse/rat insulin ELISA kit.
as §5, §6

[3] = system: db/db mice; assay: Acute effect of test compounds on plasma glucose levels in db/db mice; assay type: in vivo; conditions: for % Reduction in plasma glucose (acute): 0 hr vs 3 hr post single dose 300 mg/kg per oral; for % Reduction in plasma glucose (acute) / 3 Hr plasma glucose / 0 Hr plasma glucose: Mean ± SEM; for 3 Hr plasma glucose: 3 hrs post single dose 300 mg/kg per oral; for 0 Hr plasma glucose: 4 hrs fasted, before dosing, 300 mg/kg per oral group
Protocol: as §1, §2, §3
On the day of initiating study animals were fasted for 4 hrs and plasma glucose was measured with Glucometer by tail cut method. Animals were dosed with test compound/vehicle according to their body weight and 3 hrs post dosing plasma glucose levels were measured with Glucometer Immediately animals were provided with measured amount of feed.
Acute effect percent reduction in PG was calculated for each animal using the formula
{(0 hr PG−test hr PG)/0 hr PG}×100
as §6

[4] = system: db/db mice; assay: Chronic effect on plasma insulin levels in db/db mice; assay type: in vivo; conditions: for % Reduction@ in plasma insulin: 21th day, calculated after adjusting for control group change; for 21th day insulin: 21 days 300 mg/kg once daily, 4 hr fasting, predosing; for % Reduction in plasma insulin: basal vs 21th day; for % Reduction in plasma insulin / Basal insulin: Mean ± SEM; for Basal insulin: before treatment
Protocol: as §2, §3, §4, §7, §5, §6

[5] = Chronic effect on body weight in db/db mice; assay type: in vivo; conditions: Mean ± SEM; for Final day Body weight: after 21 days 300 mg/kg once daily; for % Increase in body weight: basal to final day
Protocol: as §3, §4, §6

[6] = Stability of the co-crystal
[7] = water
Protocol: The compounds disclosed herein are finely ground and passed through standard mesh filter and particles with 75-180 micron, and are tested for their solubility and dissolution profile.
The solubility studies for co-crystals and salts were performed according to Higuchi and Connor's method with some variations. Excess amounts (100 mg) of the samples were suspended in 10 mL of water in round bottom flask. Solutions were stirred at 300 rpm using a magnetic stirrer. After 72 h, the suspensions were filtered through a paper filter (Whatman 40)) and filtered aliquots were sufficiently diluted, the absorbance of the samples were measured at 232 nm and the values were normalized for API. […] A standard graph was made by measuring the absorbance of varied concentrations of API in water using a UV spectrophotometer (Nanodrop UV/vis spectrometer) at λmax 232 nm.

Row | SMILES | % Red PG, 21th day 3 hr post dosing [1] [%] | 21th day 3 hr post dosing PG [1] [mg/dL] | 14th day PG [2] [mg/dL] | 14th day TC [2] [mg/dL] | 14th day TG [2] [mg/dL] | % Red PG, 14th day [2] [%] | % Red TC, 14th day [2] [%] | % Red TG, 14th day [2] [%] | 21st day PG [2] [mg/dL] | 21st day TC [2] [mg/dL] | 21st day TG [2] [mg/dL] | % Red PG, 21st day [2] [%] | % Red TC (plasma cholesterol), 21st day [2] [%] | % Red TG (plasma triglyceride), 21st day [2] [%] | Basal PG [2] [mg/dL] | Basal TC [2] [mg/dL] | Basal TG [2] [mg/dL] | % Reduction in plasma glucose (acute) [3] [%] | 3 Hr plasma glucose [3] [mg/dL] | 0 Hr plasma glucose [3] [mg/dL] | further results
1 | O.O.O=c1c(O)c(-c2ccc(O)c(O)c2)oc2cc(O)cc(O)c12 [ILB-MCO-0904Q, Quercetin dihydrate] | 4 | 345 ± 41 | 476.41 ± 45.57 | 154.43 ± 6.50 | 129.08 ± 5.61 | −4 | −1 | 8 | 432.69 ± 42.38 | 151.25 ± 4.93 | 141.99 ± 8.25 | 0 | 15 | 21 | 402.50 ± 26.82 | 156.25 ± 4.53 | 138.00 ± 8.04 | 31 ± 4 | 293 ± 65 | 398 ± 67 | effect on plasma glucose levels with acute or chronic administration (in words) ([2]; 300 mg/kg): Did not show significant effect; % Reduction@ in plasma insulin [4]: 18%; 21th day insulin [4]: 2.90 ± 0.33 ng/mL; % Reduction in plasma insulin [4]: 0.29 ± 9.87%; Basal insulin [4]: 2.94 ± 0.20 ng/mL; Final day Body weight [5]: 44.6 ± 1.3 g; % Increase in body weight [5]: 12.2 ± 2.3%; Basal Body weight [5]: 39.1 ± 1.2 g
2 | CN(C)C(=N)NC(=N)N.CN(C)C(=N)NC(=N)N.O.O.O=c1c(O)c(-c2ccc(O)c(O)c2)oc2cc(O)cc(O)c12 [ILB-MCO-0905Q, Quercetin dihydrate+Metformin free base co-crystal (1:2)] | 38 | 225 ± 33 | 417.71 ± 37.85 | 153.68 ± 3.49 | 126.70 ± 6.25 | 8 | 2 | 8 | 368.96 ± 32.95 | 160.25 ± 4.29 | 129.66 ± 5.38 | 14 | 13 | 27 | 399.40 ± 26.54 | 160.42 ± 3.77 | 135.94 ± 6.92 | 48 ± 4 | 186 ± 21 | 358 ± 34 | plasma glucose levels 3 hrs post dosing after 21 days treatment followed by administration on day 21 (in words) ([1]; 300 mg/kg): significant lowering; also recorded: significant reduction; 4 hrs fasting plasma glucose levels after 21 days treatment (in words) ([2]; chronic treatment 21 days, 300 mg/kg): did not show significant reduction; plasma glucose levels 3 hrs post dosing with single dose (in words) ([3]; acute administration, 300 mg/kg, vs control group, 300 mg/kg): Significant lowering; also recorded: significant reduction; stability under accelerated conditions ([6]; accelerated conditions): stable; stability monitored once in seven days for 3 months ([6]; desiccated conditions): stable; hygroscopicity ([6]; normal conditions): hygroscopic; % Reduction@ in plasma insulin [4]: 45%; 21th day insulin [4]: 3.03 ± 0.42 ng/mL; plasma insulin levels after 21 days treatment (in words) ([4]; 21 days, 300 mg/kg, compared to control group): significant reduction; % Reduction in plasma insulin [4]: 30.56 ± 8.10 %; Basal insulin [4]: 4.55 ± 0.50 ng/mL; solubility compared with the parent molecule Quercetin ([7]; listed as Quercetin dihydrate-Metformin co-crystal): substantially improved; solubility compared with the parent molecule Quercetin ([7]; listed as Quercetin dihydrate-Metformin co-crystals): greater than the parent molecule; Final day Body weight [5]: 43.7 ± 1 g; % Increase in body weight [5]: 10.1 ± 2.5%; Basal Body weight [5]: 39.2 ± 0.8 g
